Source: US20240327393A1 (SIRONAX LTD., priority 2021, published 2024)

System: HT-1080 (ATCC, CCL-121) cells
Assay: HT-1080 cell viability assay with ferroptosis inducer RSL3 (Cell Titer-Glo)
Type: cell-based
Settings: HT-1080 cells treated with RSL3; 3-fold, 10-point dilution, 1.1 μM highest concentration; Table 3; read-out: EC50 (nM), ferroptosis inhibitory activity
Protocol: Example 2. Determination of EC50 Values in HT-1080 Cell Viability Assay
HT-1080 (ATCC, CCL-121) cells (6000 in 100 μl) were seeded in 96-well plates (Corning) and cultured in a 37° C. incubator with a humidified atmosphere of 5% CO2 for overnight. Cells were then treated with ferroptosis inducer RSL3 (TargetMol) and a 3-fold, 10-point serial dilution series of compounds with 1.1 μM as the highest concentration, […]. Cell viability was assessed using the Cell Titer-Glo Kit (Promega). The luminescence intensity was measured with a microplate reader (Envision, PerkinElmer), and cell viability was calculated by normalizing the data to untreated controls. The EC50 values of the compounds (e.g., Compounds 1-659) were calculated in GraphPad Prism (GraphPad Software, Inc., San Diego, CA, USA). The curves were fitted using a non-linear regression model with a sigmoidal dose response.

Question: With `Cc1cc(N2CCC(C(F)(F)F)CC2)ccc1Nc1ccc2c(c1)OCC(=O)N2` [Compound 515, 7-((2-methyl-4-(4-(trifluoromethyl)piperidin-1-yl)phenyl)amino)-2H-benzo[b][1,4]oxazin-3(4H)-one] as the compound, how does the EC50 read?
Answer: 0.1 to 100 nM

Same assay, conditions: Homo sapiens; HT-1080 cells treated with RSL3; 3-fold, 10-point dilution, 1.1 μM highest concentration; Table 2; read-out: EC50 (nM), ferroptosis inhibitory activity

Question: Which EC50 does the source give for `CN(C)CCn1c(=O)n(C)c2cc(Nc3ccc(C4CCC(C)(C)CC4)cc3)ccc21` [Compound 405, 1-(2-(dimethylamino)ethyl)-5-((4-(4,4-dimethylcyclohexyl)phenyl)amino)-3-methyl-1,3-dihydro-2H-benzo[d]imidazol-2-one] here?
Answer: 0.1 to 100 nM

Question: With `Cn1oc2cc(Nc3ccc(N4CCC(C(F)(F)F)CC4)cc3)ccc2c1=O` [Compound 187, 2-methyl-6-((4-(4-(trifluoromethyl)piperidin-1-yl)phenyl)amino)benzo[d]isoxazol-3(2H)-one] as the compound, how does the EC50 read?
Answer: 0.1 to 100 nM

Question: For `O=C1NCc2cc(Nc3ccc(N4CCC(C(F)(F)F)CC4)cc3)ccc21` [Compound 182, 5-((4-(4-(trifluoromethyl)piperidin-1-yl)phenyl)amino)isoindolin-1-one], which EC50 is on record?
Answer: 0.1 to 100 nM

Question: `CCCCOc1ccc(Nc2ccc3c(c2)OCC(=O)N3C)cn1` [Compound 12, 7-((6-butoxypyridin-3-yl)amino)-4-methyl-2H-benzo[b][1,4]oxazin-3(4H)-one] was tested. Which EC50 did it give?
Answer: 0.1 to 100 nM

Question: Which EC50 does the source give for `CN1C(=O)c2ccc(Nc3ccc(N4CCC(C(F)(F)F)CC4)cc3)cc2C1=O` [Compound 201, 2-methyl-5-((4-(4-(trifluoromethyl)piperidin-1-yl)phenyl)amino) isoindoline-1,3-dione] here?
Answer: 0.1 to 100 nM

Question: Which EC50 does the source give for `CN1Cc2cc(Nc3ccc(N(C)C)nc3)ccc2C1=O` [Compound 235, 5-((6-(dimethylamino)pyridin-3-yl)amino)-2-methylisoindolin-1-one] here?
Answer: 0.1 to 100 nM

Question: `Cc1cc(N2CC(C)OC(C)C2)ccc1Nc1ccc2c(cnn2C)c1` (stereo not drawn) [Compound 437, N-(4-(2,6-dimethylmorpholino)-2-methylphenyl)-1-methyl-1H-indazol-5-amine] was tested. Which EC50 did it give?
Answer: 0.1 to 100 nM

Question: `COc1cc(Nc2ccc3c(c2)n(C)c(=O)n3C)cc(OC)c1OC` [Compound 312, 1,3-dimethyl-5-((3,4,5-trimethoxyphenyl)amino)-1,3-dihydro-2H-benzo[d]imidazol-2-one] was tested. Which EC50 did it give?
Answer: 0.1 to 100 nM

Question: `Cc1cc2c(C)cc(=O)oc2cc1Nc1ccc(N2CCC(C(F)(F)F)CC2)cc1` [Compound 126, 4,6-dimethyl-7-((4-(4-(trifluoromethyl)piperidin-1-yl)phenyl)amino)-2H-chromen-2-one] was tested. Which EC50 did it give?
Answer: 0.1 to 100 nM

Question: With `CN1C(=O)COc2cc(Nc3cnc(N4CCC(C(F)(F)F)CC4)nc3)ccc21` [Compound 58, 4-methyl-7-((2-(4-(trifluoromethyl)piperidin-1-yl)pyrimidin-5-yl)amino)-2H-benzo[b][1,4]oxazin-3(4H)-one] as the compound, how does the EC50 read?
Answer: 0.1 to 100 nM

Question: `CCC1Oc2cc(Nc3ccc(N4CC(C)OC(C)C4)cc3)ccc2NC1=O` (stereo not drawn) [Compound 154, 7-((4-(2,6-dimethylmorpholino)phenyl)amino)-2-ethyl-2H-benzo[b][1,4]oxazin-3(4H)-one] was tested. Which EC50 did it give?
Answer: 0.1 to 100 nM

Question: With `CC1CCN(c2ccc(Nc3ccc4c(c3)n(C)c(=N)n4C)cc2)CC1` [Compound 345, 2-imino-1,3-dimethyl-N-(4-(4-methylpiperidin-1-yl)phenyl)-2,3-dihydro-1H-benzo[d]imidazol-5-amine] as the compound, how does the EC50 read?
Answer: 0.1 to 100 nM

Question: `CN1Cc2cc(Nc3ccc(N4CCC(C)(C)CC4)cc3)ccc2C1=O` [Compound 211, 5-((4-(4,4-dimethylpiperidin-1 yl)phenyl)amino)-2-methylisoindolin-1-one] was tested. Which EC50 did it give?
Answer: 0.1 to 100 nM

Question: `CC1CN(c2ccc(Nc3ccc4c(c3)OCC(=O)N4)cc2)CCO1` (stereo not drawn) [Compound 148, 7-((4-(2-methylmorpholino)phenyl)amino)-2H-benzo[b][1,4]oxazin-3(4H)-one] was tested. Which EC50 did it give?
Answer: 0.1 to 100 nM

Question: How did the EC50 turn out when `CN1C(=O)C(C)(C)c2ccc(Nc3ccc(N4CCC(C(F)(F)F)CC4)cc3)cc21` [Compound 335, 1,3,3-trimethyl-6-((4-(4-(trifluoromethyl)piperidin-1-yl)phenyl)amino) indolin-2-one] was run?
Answer: 0.1 to 100 nM

Question: `Cn1c(=O)n(C)c2cc(Nc3ccc(N4CCC(C(F)(F)F)CC4)cc3)ccc21` [Compound 220, 1,3-dimethyl-5-((4-(4-(trifluoromethyl)piperidin-1-yl)phenyl)amino)-1,3-dihydro-2H-benzo[d]imidazol-2-one] was tested. Which EC50 did it give?
Answer: 0.1 to 100 nM

Question: For `CN1C(=O)COc2cc(Nc3ccc(N4CCCCC4)cc3)ccc21` [Compound 29], which EC50 is on record?
Answer: 0.1 to 100 nM

Question: How did the EC50 turn out when `Cn1c(N)nc2cc(Nc3ccc(N4CCC(C(F)(F)F)CC4)cc3)ccc21` [Compound 370, 1-methyl-N^5-(4-(4-(trifluoromethyl)piperidin-1-yl)phenyl)-1H-benzo[d]imidazole-2,5-diamine] was run?
Answer: 0.1 to 100 nM

Question: For `CCN1Cc2ccc(Nc3ccc(N4CCC(F)(F)CC4)cc3)cc2C1` [Compound 167, N-(4-(4,4-difluoropiperidin-1-yl)phenyl)-2-ethylisoindolin-5-amine], which EC50 is on record?
Answer: 0.1 to 100 nM

Question: For `Cn1c(=O)cnc2cc(Nc3ccc(N4CCC(C(F)(F)F)CC4)cc3)ccc21` [Compound 111, 1-methyl-6-((4-(4-(trifluoromethyl)piperidin-1-yl)phenyl)amino) quinoxalin-2(1H)-one], which EC50 is on record?
Answer: 0.1 to 100 nM

Question: For `CC1CCN(c2ccc(Nc3ccc4c(c3)C(=O)N(C)C4)cc2)CC1` [Compound 170, 2-methyl-6-((4-(4-methylpiperidin-1-yl)phenyl)amino)isoindolin-1-one], which EC50 is on record?
Answer: 0.1 to 100 nM

Question: Which EC50 does the source give for `CCN(CC)c1ccc(Nc2ccc3c(c2)OCC(=O)N3C)cc1` [Compound 22, 7-((4-(diethylamino)phenyl)amino)-4-methyl-2H-benzo[b][1,4]oxazin-3(4H)-one] here?
Answer: 0.1 to 100 nM

Question: How did the EC50 turn out when `Cn1c(=O)oc2cc(Nc3ccc(C4CCC(C)(C)CC4)cc3)ccc21` [Compound 406, 6-((4-(4,4-dimethylcyclohexyl)phenyl)amino)-3-methylbenzo[d]oxazol-2(3H)-one] was run?
Answer: 0.1 to 100 nM

Same assay, conditions: Homo sapiens; HT-1080 cells treated with RSL3; 3-fold, 10-point dilution, 1.1 μM highest concentration; Table 3; read-out: EC50 (nM), ferroptosis inhibitory activity

Question: For `CN1C(=O)COc2cc(N(C)c3ccc(N4CCC(C(F)(F)F)CC4)cc3)ccc21` [Compound 532, 4-methyl-7-(methyl(4-(4-(trifluoromethyl)piperidin-1-yl)phenyl)amino)-2H-benzo[b][1,4]oxazin-3(4H)-one], which EC50 is on record?
Answer: 100 to 1000 nM

Question: How did the EC50 turn out when `Cc1cc(OC(F)F)ccc1Nc1ccc2c(c1)OCC(=O)N2` [Compound 653, 7-[4-(difluoromethoxy)-2-methyl-anilino]-4H-1,4-benzoxazin-3-one] was run?
Answer: 0.1 to 100 nM

Question: How did the EC50 turn out when `Cc1cc(N2CCN(C(=O)C(F)(F)F)[C@@H](C)C2)ccc1Nc1ccc2c(c1)OCC(=O)N2` [Compound 552, (S)-7-((2-methyl-4-(3-methyl-4-(2,2,2-trifluoroacetyl)piperazin-1-yl)phenyl)amino)-2H-benzo[b][1,4]oxazin-3(4H)-one] was run?
Answer: 0.1 to 100 nM

Question: With `Cc1cc(N2CCC(C(F)(F)F)CC2)ccc1Nc1ccc2c(c1)OC[C@H](N)C(=O)N2` [Compound 601, (S)-8-(4-(4-(trifluoromethyl)piperidin-1-yl)-2-methylphenylamino)-3-amino-2,3-dihydrobenzo[b][1,4]oxazepin-4(5H)-one] as the compound, how does the EC50 read?
Answer: 0.1 to 100 nM

Question: Which EC50 does the source give for `CC[C@@H]1CN(c2ccc(Nc3ccc4c(c3)OCC(=O)N4)c(C)n2)C[C@@H](C)O1` [Compound 471, 7-((6-((2R,6R)-2-ethyl-6-methylmorpholino)-2-methylpyridin-3-yl)amino)-2H-benzo[b][1,4]oxazin-3(4H)-one] here?
Answer: 0.1 to 100 nM

Question: `Cc1cc(N2CCC(C(F)(F)F)CC2)ccc1Nc1cc2c(cc1C)NC(=O)CO2` [Compound 512, 6-methyl-7-((2-methyl-4-(4-(trifluoromethyl)piperidin-1-yl)phenyl)amino)-2H-benzo[b][1,4]oxazin-3(4H)-one] was tested. Which EC50 did it give?
Answer: 0.1 to 100 nM
